# Columns and labels:
# [1] = biological target: Leucine-rich repeat serine/threonine-protein kinase 2 (Homo sapiens) (UniProt Q5S007); conditions: Compound concentration 1000.0 nM
# [2] = biological target: Cyclin-dependent kinase-like 1 (Homo sapiens) (UniProt Q00532); conditions: Compound concentration 1000.0 nM
# [3] = biological target: Serine/threonine-protein kinase Sgk3 (Homo sapiens) (UniProt Q96BR1); conditions: Compound concentration 1000.0 nM
# [4] = biological target: Muscarinic acetylcholine receptor M3 (Homo sapiens) (UniProt P20309); conditions: Compound concentration 10.0 uM
# [5] = biological target: Mitotic checkpoint serine/threonine-protein kinase BUB1 (Homo sapiens) (UniProt O43683); conditions: Compound concentration 1000.0 nM
# [6] = biological target: Ankyrin repeat and protein kinase domain-containing protein 1 (Homo sapiens) (UniProt Q8NFD2); conditions: Compound concentration 1000.0 nM
# [7] = tested on: Mast/stem cell growth factor receptor Kit (Homo sapiens), P10721 [D816V]; conditions: Compound concentration 1000.0 nM
# [8] = biological target: BMP-2-inducible protein kinase (Homo sapiens) (UniProt Q9NSY1); conditions: Compound concentration 1000.0 nM
# [9] = tested on: Mast/stem cell growth factor receptor Kit (Homo sapiens), P10721 [V559D,V654A]; conditions: Compound concentration 1000.0 nM
# [10] = biological target: Mitogen-activated protein kinase 7 (Homo sapiens) (UniProt Q13164); conditions: Compound concentration 1000.0 nM
# [11] = biological target: TGF-beta receptor type-1 (Homo sapiens) (UniProt P36897); conditions: Compound concentration 1000.0 nM
# [12] = biological target: Receptor-type tyrosine-protein kinase FLT3 (Homo sapiens) (UniProt P36888); conditions: Compound concentration 1000.0 nM
# [13] = biological target: Histamine H2 receptor (Homo sapiens) (UniProt P25021); experiment: H2 (h) Eurofins-Cerep Cellular and Nuclear Receptor Functional Assays; conditions: Compound concentration 10.0 uM
# [14] = biological target: Serine/threonine-protein kinase B-raf (Homo sapiens) (UniProt P15056); conditions: Compound concentration 1000.0 nM
# [15] = biological target: T1, Prostaglandin E2 receptor EP3 subtype (Homo sapiens) (UniProt P43115); experiment: EP3 (h) Eurofins-Cerep Cellular and Nuclear Receptor Functional Assays; conditions: Compound concentration 10.0 uM
# T1 sequence (whole entry): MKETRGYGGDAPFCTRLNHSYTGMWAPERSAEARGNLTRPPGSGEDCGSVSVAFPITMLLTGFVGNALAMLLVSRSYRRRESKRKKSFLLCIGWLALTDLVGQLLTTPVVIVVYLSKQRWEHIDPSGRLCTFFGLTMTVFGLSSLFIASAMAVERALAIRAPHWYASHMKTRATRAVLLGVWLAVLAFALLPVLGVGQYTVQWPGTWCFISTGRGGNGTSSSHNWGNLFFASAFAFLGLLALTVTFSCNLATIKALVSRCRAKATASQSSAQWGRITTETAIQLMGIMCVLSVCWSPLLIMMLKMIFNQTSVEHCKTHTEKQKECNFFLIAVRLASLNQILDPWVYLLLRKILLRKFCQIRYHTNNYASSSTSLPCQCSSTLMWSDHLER
# [16] = biological target: Myotonin-protein kinase (Homo sapiens) (UniProt Q09013); conditions: Compound concentration 1000.0 nM
# [17] = biological target: Mitogen-activated protein kinase kinase kinase 5 (Homo sapiens) (UniProt Q99683); conditions: Compound concentration 1000.0 nM
# [18] = biological target: Calcium/calmodulin-dependent protein kinase kinase 2 (Homo sapiens) (UniProt Q96RR4); conditions: Compound concentration 1000.0 nM
# [19] = biological target: Mitogen-activated protein kinase kinase kinase kinase 5 (Homo sapiens) (UniProt Q9Y4K4); conditions: Compound concentration 1000.0 nM
# [20] = biological target: Serine/threonine-protein kinase N2 (Homo sapiens) (UniProt Q16513); conditions: Compound concentration 1000.0 nM
# [21] = tested on: Proto-oncogene tyrosine-protein kinase receptor Ret (Homo sapiens), P07949 [V804M]; conditions: Compound concentration 1000.0 nM
# [22] = biological target: Myosin light chain kinase, smooth muscle (Homo sapiens) (UniProt Q15746); conditions: Compound concentration 1000.0 nM
# [23] = biological target: Mitogen-activated protein kinase 11 (Homo sapiens) (UniProt Q15759); conditions: Compound concentration 1000.0 nM
# [24] = biological target: Tyrosine-protein kinase Fes/Fps (Homo sapiens) (UniProt P07332); conditions: Compound concentration 1000.0 nM
# [25] = biological target: Cyclin-dependent kinase 5 (Homo sapiens) (UniProt Q00535); conditions: Compound concentration 1000.0 nM
# [26] = biological target: Rhodopsin kinase GRK7 (Homo sapiens) (UniProt Q8WTQ7); conditions: Compound concentration 1000.0 nM
# [27] = tested on: Tyrosine-protein kinase ABL1 (Homo sapiens), P00519 [Q252H]; conditions: Compound concentration 1000.0 nM
# [28] = biological target: Uncharacterized serine/threonine-protein kinase SBK3 (Homo sapiens) (UniProt P0C264); conditions: Compound concentration 1000.0 nM
# [29] = biological target: 5-hydroxytryptamine receptor 1D (Homo sapiens) (UniProt P28221); conditions: Compound concentration 10.0 uM
# [30] = biological target: TGF-beta receptor type-2 (Homo sapiens) (UniProt P37173); conditions: Compound concentration 1000.0 nM
# [31] = biological target: Serine/threonine-protein kinase PAK 3 (Homo sapiens) (UniProt O75914); conditions: Compound concentration 1000.0 nM
# [32] = biological target: Tyrosine-protein kinase ITK/TSK (Homo sapiens) (UniProt Q08881); conditions: Compound concentration 1000.0 nM
# [33] = biological target: MAP kinase-interacting serine/threonine-protein kinase 2 (Homo sapiens) (UniProt Q9HBH9); conditions: Compound concentration 1000.0 nM
# [34] = biological target: NT-3 growth factor receptor (Homo sapiens) (UniProt Q16288); conditions: Compound concentration 1000.0 nM
# [35] = biological target: Ephrin type-B receptor 6 (Homo sapiens) (UniProt O15197); conditions: Compound concentration 1000.0 nM
# [36] = tested on: Phosphatidylinositol 4,5-bisphosphate 3-kinase catalytic subunit alpha isoform (Homo sapiens), P42336 [E542K]; conditions: Compound concentration 1000.0 nM
# [37] = biological target: Activin receptor type-1-like (Homo sapiens) (UniProt P37023); conditions: Compound concentration 1000.0 nM
# [38] = biological target: Histamine H3 receptor (Homo sapiens) (UniProt Q9Y5N1); experiment: H3 (h) Eurofins-Cerep Cellular and Nuclear Receptor Functional Assays; conditions: Compound concentration 10.0 uM
# [39] = biological target: Beta-2 adrenergic receptor (Homo sapiens) (UniProt P07550); experiment: beta2 (h) Eurofins-Cerep Cellular and Nuclear Receptor Functional Assays; conditions: Compound concentration 10.0 uM
# Sequence of Beta-2 adrenergic receptor (Homo sapiens) (P07550 whole entry, looked up): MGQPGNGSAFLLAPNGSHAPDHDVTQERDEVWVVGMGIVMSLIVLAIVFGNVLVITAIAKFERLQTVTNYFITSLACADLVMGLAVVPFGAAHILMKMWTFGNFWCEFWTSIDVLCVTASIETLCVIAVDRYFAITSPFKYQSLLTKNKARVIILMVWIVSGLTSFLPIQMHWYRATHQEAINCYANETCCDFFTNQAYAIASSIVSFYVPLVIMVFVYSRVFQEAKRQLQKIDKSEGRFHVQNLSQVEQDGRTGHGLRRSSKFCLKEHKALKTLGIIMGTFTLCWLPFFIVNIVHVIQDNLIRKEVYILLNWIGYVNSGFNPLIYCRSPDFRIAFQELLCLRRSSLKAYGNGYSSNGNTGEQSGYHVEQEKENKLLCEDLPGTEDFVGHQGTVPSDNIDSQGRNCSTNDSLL
# Sequence of Histamine H2 receptor (Homo sapiens) (P25021 whole entry): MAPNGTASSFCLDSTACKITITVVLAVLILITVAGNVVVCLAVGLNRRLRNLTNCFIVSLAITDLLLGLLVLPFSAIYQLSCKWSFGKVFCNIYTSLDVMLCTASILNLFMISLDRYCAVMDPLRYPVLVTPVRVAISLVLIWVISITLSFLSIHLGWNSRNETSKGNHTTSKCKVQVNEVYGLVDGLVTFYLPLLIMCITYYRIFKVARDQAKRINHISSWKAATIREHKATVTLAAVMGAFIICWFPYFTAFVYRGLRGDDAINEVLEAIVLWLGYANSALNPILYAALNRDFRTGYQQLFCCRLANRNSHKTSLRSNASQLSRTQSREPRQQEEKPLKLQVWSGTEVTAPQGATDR
# Sequence of Histamine H3 receptor (Homo sapiens) (Q9Y5N1 whole entry): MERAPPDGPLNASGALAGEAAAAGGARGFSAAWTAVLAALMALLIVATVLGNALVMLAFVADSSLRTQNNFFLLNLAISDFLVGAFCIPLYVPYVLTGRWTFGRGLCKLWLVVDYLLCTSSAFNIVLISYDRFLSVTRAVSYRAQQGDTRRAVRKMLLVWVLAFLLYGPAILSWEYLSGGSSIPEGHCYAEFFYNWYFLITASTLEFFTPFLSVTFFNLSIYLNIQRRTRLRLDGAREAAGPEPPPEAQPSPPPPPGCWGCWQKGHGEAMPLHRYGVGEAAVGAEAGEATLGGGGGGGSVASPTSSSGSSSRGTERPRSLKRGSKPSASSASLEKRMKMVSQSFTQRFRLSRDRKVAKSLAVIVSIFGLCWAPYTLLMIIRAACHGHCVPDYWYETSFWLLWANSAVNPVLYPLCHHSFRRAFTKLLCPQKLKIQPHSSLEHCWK
# Sequence of NT-3 growth factor receptor (Homo sapiens) (Q16288 32-839 limits assumed): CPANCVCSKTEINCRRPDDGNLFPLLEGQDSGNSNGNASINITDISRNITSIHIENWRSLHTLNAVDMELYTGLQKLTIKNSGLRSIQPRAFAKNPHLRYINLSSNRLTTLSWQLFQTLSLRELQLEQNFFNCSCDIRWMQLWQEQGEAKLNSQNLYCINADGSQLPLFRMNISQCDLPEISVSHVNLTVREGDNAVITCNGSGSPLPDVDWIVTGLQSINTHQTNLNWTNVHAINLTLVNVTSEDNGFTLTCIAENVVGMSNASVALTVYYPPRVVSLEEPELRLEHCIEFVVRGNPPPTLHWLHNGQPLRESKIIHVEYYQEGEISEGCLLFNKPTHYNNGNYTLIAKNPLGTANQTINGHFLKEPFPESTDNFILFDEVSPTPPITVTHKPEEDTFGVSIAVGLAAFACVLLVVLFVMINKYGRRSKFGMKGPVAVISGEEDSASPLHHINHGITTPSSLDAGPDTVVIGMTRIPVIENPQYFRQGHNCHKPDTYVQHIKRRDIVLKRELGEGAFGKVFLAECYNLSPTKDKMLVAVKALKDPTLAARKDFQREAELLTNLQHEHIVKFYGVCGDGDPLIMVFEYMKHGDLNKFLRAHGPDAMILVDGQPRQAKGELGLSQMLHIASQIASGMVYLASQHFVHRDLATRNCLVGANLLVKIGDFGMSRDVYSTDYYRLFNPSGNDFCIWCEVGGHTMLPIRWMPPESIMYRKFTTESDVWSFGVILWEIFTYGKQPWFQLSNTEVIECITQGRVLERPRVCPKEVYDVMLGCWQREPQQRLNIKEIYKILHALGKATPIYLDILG
# Sequence of Rhodopsin kinase GRK7 (Homo sapiens) (Q8WTQ7 whole entry): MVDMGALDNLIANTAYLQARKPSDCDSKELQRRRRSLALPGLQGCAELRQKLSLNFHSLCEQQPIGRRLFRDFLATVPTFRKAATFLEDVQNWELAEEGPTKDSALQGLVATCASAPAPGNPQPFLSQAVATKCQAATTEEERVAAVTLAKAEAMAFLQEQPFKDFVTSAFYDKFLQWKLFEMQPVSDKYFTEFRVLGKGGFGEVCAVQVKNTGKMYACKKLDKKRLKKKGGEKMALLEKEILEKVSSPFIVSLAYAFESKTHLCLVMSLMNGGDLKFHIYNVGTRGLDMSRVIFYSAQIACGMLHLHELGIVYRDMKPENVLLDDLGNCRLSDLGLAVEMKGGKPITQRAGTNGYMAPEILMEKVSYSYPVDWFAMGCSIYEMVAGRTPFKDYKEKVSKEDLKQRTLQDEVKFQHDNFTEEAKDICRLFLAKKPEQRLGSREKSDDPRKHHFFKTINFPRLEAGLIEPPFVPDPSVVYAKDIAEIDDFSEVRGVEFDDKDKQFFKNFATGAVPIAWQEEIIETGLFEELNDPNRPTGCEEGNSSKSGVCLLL
# Sequence of Tyrosine-protein kinase ITK/TSK (Homo sapiens) (Q08881 whole entry): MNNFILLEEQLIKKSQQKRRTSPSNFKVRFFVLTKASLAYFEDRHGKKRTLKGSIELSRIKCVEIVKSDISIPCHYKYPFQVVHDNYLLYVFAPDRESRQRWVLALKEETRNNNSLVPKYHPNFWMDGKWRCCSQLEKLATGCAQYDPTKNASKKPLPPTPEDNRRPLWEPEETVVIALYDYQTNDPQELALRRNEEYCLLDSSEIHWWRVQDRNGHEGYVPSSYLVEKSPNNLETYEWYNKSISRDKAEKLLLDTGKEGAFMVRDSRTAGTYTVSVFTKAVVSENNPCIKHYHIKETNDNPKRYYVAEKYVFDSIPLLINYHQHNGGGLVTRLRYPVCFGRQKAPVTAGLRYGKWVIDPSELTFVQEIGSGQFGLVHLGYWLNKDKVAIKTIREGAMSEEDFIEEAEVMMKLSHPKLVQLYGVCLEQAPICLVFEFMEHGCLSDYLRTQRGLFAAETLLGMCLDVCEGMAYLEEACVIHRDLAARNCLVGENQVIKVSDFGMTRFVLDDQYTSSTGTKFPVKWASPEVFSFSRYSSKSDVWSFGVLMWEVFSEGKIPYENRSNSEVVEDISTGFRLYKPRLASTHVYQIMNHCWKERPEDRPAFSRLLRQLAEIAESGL
# Sequence of Ankyrin repeat and protein kinase domain-containing protein 1 (Homo sapiens) (Q8NFD2 whole entry, the tested form may be a part): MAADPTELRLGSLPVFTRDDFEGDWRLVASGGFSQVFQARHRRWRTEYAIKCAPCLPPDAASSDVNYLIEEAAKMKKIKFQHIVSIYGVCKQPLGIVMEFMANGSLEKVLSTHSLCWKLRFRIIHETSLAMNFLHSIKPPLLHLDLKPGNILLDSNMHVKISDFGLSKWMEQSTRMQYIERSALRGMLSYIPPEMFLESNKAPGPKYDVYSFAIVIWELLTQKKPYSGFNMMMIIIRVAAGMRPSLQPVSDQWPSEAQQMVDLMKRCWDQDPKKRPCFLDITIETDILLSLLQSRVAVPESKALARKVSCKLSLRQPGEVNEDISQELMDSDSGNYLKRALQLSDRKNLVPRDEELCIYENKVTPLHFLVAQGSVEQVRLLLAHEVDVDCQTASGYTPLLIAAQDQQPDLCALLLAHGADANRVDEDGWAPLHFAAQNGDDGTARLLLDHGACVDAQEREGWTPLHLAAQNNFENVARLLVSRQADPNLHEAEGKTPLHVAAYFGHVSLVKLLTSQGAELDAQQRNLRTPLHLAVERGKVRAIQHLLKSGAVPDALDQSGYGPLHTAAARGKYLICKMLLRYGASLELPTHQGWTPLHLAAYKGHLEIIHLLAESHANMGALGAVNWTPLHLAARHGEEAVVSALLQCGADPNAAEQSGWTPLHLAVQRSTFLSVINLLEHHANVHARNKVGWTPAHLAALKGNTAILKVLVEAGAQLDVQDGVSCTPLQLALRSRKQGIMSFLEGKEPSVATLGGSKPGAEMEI
# Sequence of Serine/threonine-protein kinase B-raf (Homo sapiens) (P15056 whole entry): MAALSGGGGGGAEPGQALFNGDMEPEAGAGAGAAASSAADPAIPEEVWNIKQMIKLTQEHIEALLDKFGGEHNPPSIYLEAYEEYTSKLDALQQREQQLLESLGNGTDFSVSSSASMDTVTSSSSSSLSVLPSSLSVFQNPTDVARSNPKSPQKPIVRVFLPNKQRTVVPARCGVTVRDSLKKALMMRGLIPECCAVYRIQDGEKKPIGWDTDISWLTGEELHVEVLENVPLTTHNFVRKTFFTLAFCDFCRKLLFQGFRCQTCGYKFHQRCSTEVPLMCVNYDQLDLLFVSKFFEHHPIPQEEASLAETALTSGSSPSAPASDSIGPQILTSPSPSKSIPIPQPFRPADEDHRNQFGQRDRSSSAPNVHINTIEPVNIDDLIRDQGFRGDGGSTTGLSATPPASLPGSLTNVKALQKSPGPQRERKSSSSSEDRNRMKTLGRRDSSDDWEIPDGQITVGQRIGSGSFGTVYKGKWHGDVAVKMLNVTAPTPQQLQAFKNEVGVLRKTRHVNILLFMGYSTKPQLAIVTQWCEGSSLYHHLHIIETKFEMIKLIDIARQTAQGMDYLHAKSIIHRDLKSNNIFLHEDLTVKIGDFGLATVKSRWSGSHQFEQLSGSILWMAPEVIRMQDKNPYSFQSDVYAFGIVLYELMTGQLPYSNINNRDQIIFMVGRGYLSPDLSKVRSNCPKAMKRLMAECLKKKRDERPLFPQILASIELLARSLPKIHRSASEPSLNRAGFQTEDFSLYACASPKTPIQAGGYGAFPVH
# Sequence of Cyclin-dependent kinase 5 (Homo sapiens) (Q00535 whole entry, looked up): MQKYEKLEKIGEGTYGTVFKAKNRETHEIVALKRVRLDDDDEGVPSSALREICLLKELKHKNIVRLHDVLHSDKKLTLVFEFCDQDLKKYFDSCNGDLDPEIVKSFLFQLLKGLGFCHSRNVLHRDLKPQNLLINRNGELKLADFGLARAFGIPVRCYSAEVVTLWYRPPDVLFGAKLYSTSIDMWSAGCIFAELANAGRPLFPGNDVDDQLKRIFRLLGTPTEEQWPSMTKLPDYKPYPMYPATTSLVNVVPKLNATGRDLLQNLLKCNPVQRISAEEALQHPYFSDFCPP
compound,measurement,setting,value
O=C(N1CCS(=O)(=O)CC1)N1C[C@H](c2ccc(OC(F)(F)F)cc2)C[C@H](c2nc(C3CC3)no2)C1 [BAY-386],residual activity,[1],100%
same,residual activity,[2],100%
same,residual activity,[3],100%
same,inhibition,[4],-2.11%
same,residual activity,[5],100%
same,residual activity,[6],100%
same,residual activity,[7],100%
same,residual activity,[8],97%
same,residual activity,[9],100%
same,residual activity,[10],100%
same,residual activity,[11],100%
same,residual activity,[12],96%
same,% Inhibition of Control Agonist Response (Mean n=2),[13],9.6%
same,% of Control Agonist Response (Mean n=2),[13],-0.7%
same,residual activity,[14],100%
same,% Inhibition of Control Agonist Response (Mean n=2),[15],-8%
same,% of Control Agonist Response (Mean n=2),[15],4.5%
same,residual activity,[16],100%
same,residual activity,[17],100%
same,residual activity,[18],100%
same,residual activity,[19],100%
same,residual activity,[20],100%
same,residual activity,[21],100%
same,residual activity,[22],100%
same,residual activity,[23],100%
same,residual activity,[24],100%
same,residual activity,[25],83%
same,residual activity,[26],100%
same,residual activity,[27],100%
same,residual activity,[28],98%
same,inhibition,[29],5.17%
same,residual activity,[30],100%
same,residual activity,[31],100%
same,residual activity,[32],100%
same,residual activity,[33],94%
same,residual activity,[34],100%
same,residual activity,[35],100%
same,residual activity,[36],88%
same,residual activity,[37],100%
same,% Inhibition of Control Agonist Response (Mean n=2),[38],-3.7%
same,% of Control Agonist Response (Mean n=2),[38],6.2%
same,% Inhibition of Control Agonist Response (Mean n=2),[39],-6.9%
same,% of Control Agonist Response (Mean n=2),[39],-1.7%
Cc1noc([C@H]2C[C@@H](c3ccc(C(F)(F)F)cc3)CN(C(=O)N3CCS(=O)(=O)C3)C2)n1 [BAY-448],residual activity,[1],65%
same,residual activity,[2],100%
same,residual activity,[3],100%
same,inhibition,[4],-1.45%
same,residual activity,[5],100%
same,residual activity,[6],100%
same,residual activity,[7],100%
same,residual activity,[8],100%
same,residual activity,[9],100%
same,residual activity,[10],87%
same,residual activity,[11],100%
same,residual activity,[12],100%
same,% Inhibition of Control Agonist Response (Mean n=2),[13],-2.8%
same,% of Control Agonist Response (Mean n=2),[13],2.6%
same,residual activity,[14],97%
same,% Inhibition of Control Agonist Response (Mean n=2),[15],0.6%
same,% of Control Agonist Response (Mean n=2),[15],-0.6%
same,residual activity,[16],100%
same,residual activity,[17],100%
same,residual activity,[18],100%
same,residual activity,[19],100%
same,residual activity,[20],100%
same,residual activity,[21],100%
same,residual activity,[22],87%
same,residual activity,[23],100%
same,residual activity,[24],100%
same,residual activity,[25],100%
same,residual activity,[26],100%
same,residual activity,[27],100%
same,residual activity,[28],84%
same,inhibition,[29],-9.27%
same,residual activity,[30],100%
same,residual activity,[31],100%
same,residual activity,[32],100%
same,residual activity,[33],100%
same,residual activity,[34],100%
same,residual activity,[35],73%
same,residual activity,[36],71%
same,residual activity,[37],100%
same,% Inhibition of Control Agonist Response (Mean n=2),[38],-4.2%
same,% of Control Agonist Response (Mean n=2),[38],13.9%
same,% Inhibition of Control Agonist Response (Mean n=2),[39],10.2%
same,% of Control Agonist Response (Mean n=2),[39],2.3%

# Reference: ChEMBL document CHEMBL4507269, “Data for DCP probe BAY-386” (2021)
